What was measured:
L. monocytogenes = test: film on lawn assay; format: cell-based
Experimental: Films of Example 1 and Example 2 at 150μ in thickness were cut into 15 mm by 15 mm samples placed onto aluminum foil, and exposed to UV light in a laminar flow hood for 4 to 7 minutes. The samples were then transferred from foil to various solutions as described in Table 6 to soak for 12 to 24 hours at room temperature.
(§1) For each antimicrobial solution concentration, a spot on lawn assay procedure was first conducted on agar plates to assess the efficacy of the solution to colony control. In this procedure, the TSA agar plates were inoculated with L. monocytogenes 15313 at a level of 10E+08 cfu/ml through an Autoplate 4000 model from Spiral Biotech. A volumetric pipette pump was then used to place three 10-μl spots of an antimicrobial solution onto appropriate regions of the test plate. Separately, another volumetric pipette pump was used to place 10 μl of a control solution (i.e., the solution in which the antimicrobial agent is dissolved). Three such agar plates were prepared for each concentration of antimicrobial solution. After spot placement, the plates were allowed to stand undisturbed for 10 to 30 minutes in a laminar flow hood before incubation at 37° C. for at least 24 hours. The resultant zones of inhibition were measured using a dial caliper (Brown and Sharpe, accuracy to 0.02 mm) with each zone measured twice on a 90° axis. Three such spots (for the antimicrobial treated solution) were so measured per plate, with three plates per condition to provide 18 such measurements. […] In the film on lawn procedure, 15 mm×15 mm films of example 1 and 2 were placed in freshly made up solutions for 12 to 24 hours at room temperature and then removed with a pair of flame-sterilized ocular forceps, allowed to drip dry, then placed for 60 seconds on a sterile Petri-dish before positioning on agar plates in a film on lawn assay procedure. The TSA agar plates had been prepared by inoculating with L. monocytogenes at a level of 10E+08 cfu/ml through an Autoplate 4000 model from Spiral Biotech. Two such films were so placed on the prepared TSA agar plates. A third 15 mm×15 mm film was soaked under the same conditions in a control solution (the solution without the antimicrobial agent) and placed in a third region of the plate. Three such plates were prepared in this manner for each concentration of antimicrobial agent. After film placement, the plates were allowed to stand undisturbed for 10 to 30 minutes in a laminar flow hood before incubation at 37° C. for at least 24 hours. The resultant zones of inhibition were measured using a dial caliper (Brown and Sharpe, accuracy to 0.02 mm) with each zone measured twice on a 90° axis. Two such films (for the antimicrobial treated film) were so measured per plate, with three plates per condition to provide 12 such measurements. No zones of inhibition were recorded for the control films.

L. monocytogenes 15313 = test: spot on lawn assay; format: cell-based; settings: 10-μl spots
Description: as §1, with “Two such films were so placed on the prepared TSA agar plates. A third 15 mm×15 mm film was soaked under the same conditions in a control solution (the solution without the antimicrobial agent) and placed in a third region of the plate. Three such plates were prepared in this manner for each concentration of antimicrobial agent. After film placement, the plates were allowed to stand undisturbed for 10 to 30 minutes in a laminar flow hood before incubation at 37° C. for at least 24 hours.” left out

Row | Structure (SMILES) | Group averages of Inhibition Zones (mm), Film on Lawn Assay Example 1 (L. monocytogenes; 15 mm x 15 mm film of Example 1 soaked 12-24 h in 0.75 wt % in Ethanol/Water (36/63.25)) | Group averages of Inhibition Zones (mm), Film on Lawn Assay Example 2 (L. monocytogenes; 15 mm x 15 mm film of Example 2 soaked 12-24 h in 0.75 wt % in Ethanol/Water (36/63.25)) | Group averages of Inhibition Zones (mm), Film on Lawn Assay Example 1 (L. monocytogenes; film of Example 1 soaked in 1.5 wt % in Ethanol/Water (36/62.5)) | Group averages of Inhibition Zones (mm), Film on Lawn Assay Example 1 (L. monocytogenes; film of Example 1 soaked in 3.0 wt % in Ethanol/Water (36/61)) | Group averages of Inhibition Zones (mm), Film on Lawn Assay Example 2 (L. monocytogenes; film of Example 2 soaked in 1.5 wt % in Ethanol/Water (36/62.5)) | Group averages of Inhibition Zones (mm), Film on Lawn Assay Example 2 (L. monocytogenes; film of Example 2 soaked in 3.0 wt % in Ethanol/Water (36/61)) | Group averages of Inhibition Zones (mm), Spot on Lawn Assay (L. monocytogenes 15313; 0.75 wt % in Ethanol/Water (36/63.25)) | Group averages of Inhibition Zones (mm), Spot on Lawn Assay (L. monocytogenes 15313; 1.5 wt % in Ethanol/Water (36/62.5)) | Group averages of Inhibition Zones (mm), Spot on Lawn Assay (L. monocytogenes 15313; 3.0 wt % in Ethanol/Water (36/61)) | Group averages of Inhibition Zones (mm), Film on Lawn Assay Example 1 (L. monocytogenes; film of Example 1 soaked in 5 wt % in Water (95)) | Group averages of Inhibition Zones (mm), Film on Lawn Assay Example 1 (L. monocytogenes; film of Example 1 soaked in 7.5 wt % in Water (92.5)) | Group averages of Inhibition Zones (mm), Film on Lawn Assay Example 1 (L. monocytogenes; film of Example 1 soaked in 10 wt % in Water (90)) | Group averages of Inhibition Zones (mm), Film on Lawn Assay Example 2 (L. monocytogenes; film of Example 2 soaked in 5 wt % in Water (95)) | Group averages of Inhibition Zones (mm), Film on Lawn Assay Example 2 (L. monocytogenes; film of Example 2 soaked in 7.5 wt % in Water (92.5)) | Group averages of Inhibition Zones (mm), Film on Lawn Assay Example 2 (L. monocytogenes; film of Example 2 soaked in 10 wt % in Water (90))
1 | O=C(O)c1ccccc1 [Benzoic acid] | 21.55 ± 0.77 mm | 23.49 ± 1.47 mm | 25.92 ± 1.02 mm | 25.76 ± 0.41 mm | 27.85 ± 0.96 mm | 27.6 ± 2.03 mm | 7.31 ± 0.91 mm | 7.70 ± 0.61 mm | 8.64 ± 0.76 mm |  |  |  |  |  | 
2 | O=C(O)CC(O)(CC(=O)O)C(=O)O [Citric acid] |  |  |  |  |  |  |  |  |  | Slight^3 | 19.21 ± 0.25 mm | 21.00 ± 0.63 mm | 0 mm | 0 mm | 0 mm

From US8858985B2, “Films comprising a liquid-absorbant inner layer, an antimicrobial material and an impermeable outer layer” (E I du Pont de Nemours and Company, priority 2004, dated 2014)
